# Where “and” joins values, the source holds several entries; their conditions need not be identical. Equal entries are not always repeated.
# Molecular target: T1, human TAS2R4 (Homo sapiens, UniProt Q9NYW5)
# T1 construct: expressed in transfected cells; host or cells: HEK293T-Gα16gust44
# T1 sequence (Q9NYW5 1-299): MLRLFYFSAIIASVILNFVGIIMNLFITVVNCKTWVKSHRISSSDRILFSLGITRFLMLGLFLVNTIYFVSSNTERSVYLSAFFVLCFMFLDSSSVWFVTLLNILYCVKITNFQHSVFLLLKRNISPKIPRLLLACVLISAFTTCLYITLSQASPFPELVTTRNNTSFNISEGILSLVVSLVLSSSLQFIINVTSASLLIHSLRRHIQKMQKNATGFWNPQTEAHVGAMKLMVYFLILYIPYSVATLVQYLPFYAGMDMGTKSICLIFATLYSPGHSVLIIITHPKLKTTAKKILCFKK
# Experiment: Calcium imaging assay (FLIPR), HEK293T-Gα16gust44 cells transfected with human TAS2R4
# Type: cell-based
# Procedure: This set of bile acids was chosen because of their commercial availability in high purities, their diversity within the class of bile acids and their previous detection and quantitation in human blood. Stock solutions were prepared in DMSO.
# As basal growth medium for the HEK293T-Gα16gust44 cell line[17],[59] served Dulbecco’s modified eagle medium (DMEM) (Thermo Fisher Scientific, Darmstadt, Germany) supplemented with 10 % fetal bovine serum (Sigma-Aldrich, Steinheim, Germany), 2 mM L-glutamine (Sigma-Aldrich, Steinheim, Germany), 100 units/ml penicillin (Sigma Aldrich, Steinheim, Germany) and 100 µg/ml streptomycin (Sigma Aldrich, Steinheim, Germany). Growth conditions were 37 °C, 5 % CO2 and saturated air-humidity[60].
# HEK293T-Gα16gust44 cells were seeded on poly-D-lysine (10 µg/ml) coated 96-well plates to reach a confluence of 40-60 % the next day. For transient transfection 150 ng of plasmid DNA containing the receptor of interest and 0.3 µl lipofectamine 2000 (Thermo Fisher Scientific, Darmstadt, Germany) per well were used and transfection took place according to the manual of lipofectamine 2000. […] The empty vector DNA (mock) was transfected as negative control[14],[41].
# Cells were loaded using the calcium-sensitive fluorescent dye Fluo-4-AM (Abcam, Cambridge, Great Britain) in the presence of 2.5 mM probenecid (Sigma-Aldrich, Steinheim, Germany) the day after transfection[13],[41]. 1 h after loading, cells were washed with C1 buffer using a BioTek Cell Washer, incubated in the dark for half an hour and washed again. For automated agonist application and measurement of fluorescence changes, a FLIPR^TETRA device (Molecular Devices, San José, United States) was used. Viability of cells was tested by application of 100 nM Somatostatin 14 (Bachem, Bubendorf, Switzerland)[42].
# Measured data were negative control corrected by subtracting the signal of the mock-transfected cells and exported to Microsoft Excel using the FLIPR software ScreenWorks 4.2. In Microsoft Excel software, standardization of maximum fluorescence intensities to the basal fluorescence and normalization to the buffer-only control was done to calculate the relative fluorescence changes (ΔF/F).
# Initial screening experiments performed in duplicate wells were confirmed by at least one replication and representative traces were selected for display. All dose-response relationships were determined by three independent experiments (biological replicates) performed in duplicates (technical replicates). Threshold concentrations, defined as lowest substance concentrations leading to statistically significant elevated fluorescence changes in receptor-transfected cells compared with empty vector-transfected cells, were determined using SigmaPlot with Student’s t-test to evaluate statistical significance (p < 0.01).
smiles,measurement,setting,value
"C[C@H](CCC(=O)O)[C@H]1CC[C@H]2[C@@H]3[C@H](O)C[C@@H]4C[C@H](O)CC[C@]4(C)[C@H]3C[C@H](O)[C@]12C [Cholic Acid, cholic acid]",Efficacy = maximal amplitude (ΔF/F),"TAS2R4, bile acids, mean",0.1231
same,"Efficacy (maximal amplitude ΔF/F), individual data points","TAS2R4, bile acids, single replicates, listed as CA",0.1201 and 0.127 and 0.1223
same,"RLU, fluorescence trace",Time (s) 0,0 RLU
same,"RLU, fluorescence trace",Time (s) 2,19.1006 RLU
same,"RLU, fluorescence trace",Time (s) 4,0.3953 RLU
same,"RLU, fluorescence trace",Time (s) 6,2.918 RLU
same,"RLU, fluorescence trace",Time (s) 8,21.2897 RLU
same,"RLU, fluorescence trace",Time (s) 12,0.674 RLU
same,"RLU, fluorescence trace",Time (s) 14,-1.277 RLU
same,"RLU, fluorescence trace",Time (s) 16,19.6047 RLU
same,"RLU, fluorescence trace",Time (s) 18,0.9534 RLU
same,"RLU, fluorescence trace","Time (s) 18.766 (TCA, TLCA: 18.782)",-8.812 RLU
same,"RLU, fluorescence trace","Time (s) 20.781 (TCA, TLCA: 20.782)",-52.2052 RLU
same,"RLU, fluorescence trace","Time (s) 22.781 (TCA, TLCA: 22.782)",12.9621 RLU
same,"RLU, fluorescence trace","Time (s) 24.781 (TCA, TLCA: 24.782)",16.2873 RLU
same,"RLU, fluorescence trace","Time (s) 26.781 (TCA, TLCA: 26.782)",53.8077 RLU
same,"RLU, fluorescence trace","Time (s) 28.781 (TCA, TLCA: 28.782)",116.69 RLU
same,"RLU, fluorescence trace","Time (s) 30.781 (TCA, TLCA: 30.782)",202.767 RLU
same,"RLU, fluorescence trace","Time (s) 32.781 (TCA, TLCA: 32.782)",286.976 RLU
same,"RLU, fluorescence trace","Time (s) 34.781 (TCA, TLCA: 34.782)",331.157 RLU
same,"RLU, fluorescence trace","Time (s) 36.781 (TCA, TLCA: 36.782)",398.002 RLU
same,"RLU, fluorescence trace","Time (s) 38.781 (TCA, TLCA: 38.782)",447.116 RLU
same,"RLU, fluorescence trace","Time (s) 40.781 (TCA, TLCA: 40.782)",484.385 RLU
same,"RLU, fluorescence trace","Time (s) 42.781 (TCA, TLCA: 42.782)",513.813 RLU
same,"RLU, fluorescence trace","Time (s) 44.781 (TCA, TLCA: 44.782)",571.4 RLU
same,"RLU, fluorescence trace","Time (s) 46.781 (TCA, TLCA: 46.782)",576.681 RLU
same,"RLU, fluorescence trace","Time (s) 48.781 (TCA, TLCA: 48.782)",621.92 RLU
same,"RLU, fluorescence trace","Time (s) 50.781 (TCA, TLCA: 50.782)",628.153 RLU
same,"RLU, fluorescence trace","Time (s) 52.781 (TCA, TLCA: 52.782)",608.216 RLU
same,"RLU, fluorescence trace","Time (s) 54.781 (TCA, TLCA: 54.782)",673.422 RLU
same,"RLU, fluorescence trace","Time (s) 56.781 (TCA, TLCA: 56.782)",649.648 RLU
same,"RLU, fluorescence trace","Time (s) 58.781 (TCA, TLCA: 58.782)",665.81 RLU
same,"RLU, fluorescence trace","Time (s) 60.781 (TCA, TLCA: 60.782)",679.484 RLU
same,"RLU, fluorescence trace","Time (s) 62.781 (TCA, TLCA: 62.782)",679.42 RLU
same,"RLU, fluorescence trace","Time (s) 64.781 (TCA, TLCA: 64.782)",662.359 RLU
same,"RLU, fluorescence trace","Time (s) 66.781 (TCA, TLCA: 66.782)",681.18 RLU
same,"RLU, fluorescence trace","Time (s) 68.781 (TCA, TLCA: 68.782)",661.786 RLU
same,"RLU, fluorescence trace","Time (s) 70.781 (TCA, TLCA: 70.782)",663.821 RLU
same,"RLU, fluorescence trace","Time (s) 72.781 (TCA, TLCA: 72.782)",677.656 RLU
same,"RLU, fluorescence trace","Time (s) 74.781 (TCA, TLCA: 74.782)",687.298 RLU
same,"RLU, fluorescence trace","Time (s) 76.781 (TCA, TLCA: 76.782)",685.082 RLU
same,"RLU, fluorescence trace","Time (s) 78.781 (TCA, TLCA: 78.782)",661.065 RLU
same,"RLU, fluorescence trace","Time (s) 80.781 (TCA, TLCA: 80.782)",659.476 RLU
same,"RLU, fluorescence trace","Time (s) 82.781 (TCA, TLCA: 82.782)",652.14 RLU
same,"RLU, fluorescence trace","Time (s) 84.781 (TCA, TLCA: 84.782)",621.974 RLU
same,"RLU, fluorescence trace","Time (s) 86.781 (TCA, TLCA: 86.782)",644.971 RLU
same,"RLU, fluorescence trace","Time (s) 88.781 (TCA, TLCA: 88.782)",652.467 RLU
same,"RLU, fluorescence trace","Time (s) 90.781 (TCA, TLCA: 90.782)",634.908 RLU
same,"RLU, fluorescence trace","Time (s) 92.781 (TCA, TLCA: 92.782)",616.215 RLU
same,"RLU, fluorescence trace","Time (s) 94.781 (TCA, TLCA: 94.782)",623.143 RLU
same,"RLU, fluorescence trace","Time (s) 96.781 (TCA, TLCA: 96.782)",577.048 RLU
same,"RLU, fluorescence trace","Time (s) 98.781 (TCA, TLCA: 98.782)",590.83 RLU
same,"RLU, fluorescence trace","Time (s) 100.781 (TCA, TLCA: 100.782)",594.46 RLU
same,"RLU, fluorescence trace","Time (s) 102.781 (TCA, TLCA: 102.782)",570.853 RLU
same,"RLU, fluorescence trace","Time (s) 104.781 (TCA, TLCA: 104.782)",535.832 RLU
same,"RLU, fluorescence trace","Time (s) 106.781 (TCA, TLCA: 106.782)",576.036 RLU
same,"RLU, fluorescence trace","Time (s) 108.781 (TCA, TLCA: 108.782)",552.984 RLU
same,"RLU, fluorescence trace","Time (s) 110.781 (TCA, TLCA: 110.782)",539.61 RLU
same,"RLU, fluorescence trace","Time (s) 112.781 (TCA, TLCA: 112.782)",529.912 RLU
same,"RLU, fluorescence trace","Time (s) 114.781 (TCA, TLCA: 114.782)",525.649 RLU
same,"RLU, fluorescence trace","Time (s) 116.781 (TCA, TLCA: 116.782)",514.781 RLU
same,"RLU, fluorescence trace","Time (s) 118.781 (TCA, TLCA: 118.782)",515.049 RLU
same,"RLU, fluorescence trace","Time (s) 120.781 (TCA, TLCA: 120.782)",488.175 RLU
same,"RLU, fluorescence trace","Time (s) 122.781 (TCA, TLCA: 122.782)",489.541 RLU
same,"RLU, fluorescence trace","Time (s) 124.781 (TCA, TLCA: 124.782)",470.085 RLU
same,"RLU, fluorescence trace","Time (s) 126.781 (TCA, TLCA: 126.782)",464.513 RLU
same,"RLU, fluorescence trace","Time (s) 128.781 (TCA, TLCA: 128.782)",464.071 RLU
same,"RLU, fluorescence trace","Time (s) 130.781 (TCA, TLCA: 130.782)",466.285 RLU
same,"RLU, fluorescence trace","Time (s) 132.781 (TCA, TLCA: 132.782)",460.578 RLU
same,"RLU, fluorescence trace","Time (s) 134.781 (TCA, TLCA: 134.782)",427.673 RLU
same,"RLU, fluorescence trace","Time (s) 136.781 (TCA, TLCA: 136.782)",445.361 RLU
same,"RLU, fluorescence trace",Time (s) 137.547,436.003 RLU
same,"RLU, fluorescence trace",Time (s) 143.547,408.618 RLU
same,"RLU, fluorescence trace",Time (s) 149.547,386.336 RLU
same,"RLU, fluorescence trace",Time (s) 155.547,351.767 RLU
same,"RLU, fluorescence trace",Time (s) 161.547,346.602 RLU
same,"RLU, fluorescence trace",Time (s) 167.547,335.172 RLU
same,"RLU, fluorescence trace",Time (s) 173.547,264.873 RLU
same,"RLU, fluorescence trace",Time (s) 179.547,265.3 RLU
same,"RLU, fluorescence trace",Time (s) 185.547,242.782 RLU
same,"RLU, fluorescence trace",Time (s) 191.547,246.932 RLU
same,"RLU, fluorescence trace",Time (s) 197.547,258.506 RLU
same,"RLU, fluorescence trace",Time (s) 203.547,232.756 RLU
same,"RLU, fluorescence trace",Time (s) 209.547,219.78 RLU
same,"RLU, fluorescence trace",Time (s) 215.547,251.011 RLU
same,"RLU, fluorescence trace",Time (s) 221.547,260.591 RLU
same,"RLU, fluorescence trace",Time (s) 227.547,271.039 RLU
same,"RLU, fluorescence trace",Time (s) 233.547,291.66 RLU
same,"RLU, fluorescence trace",Time (s) 239.547,269.732 RLU
same,"RLU, fluorescence trace",Time (s) 245.547,266.514 RLU
same,"RLU, fluorescence trace",Time (s) 293.547,239.384 RLU
same,"RLU, fluorescence trace",Time (s) 299.547,250.874 RLU
same,"RLU, fluorescence trace",Time (s) 305.547,250.223 RLU
same,"RLU, fluorescence trace",Time (s) 311.547,248.529 RLU
same,"RLU, fluorescence trace",Time (s) 317.547,268.105 RLU
same,"RLU, fluorescence trace",Time (s) 323.547,278.662 RLU
same,"RLU, fluorescence trace",Time (s) 329.547,259.586 RLU
same,"RLU, fluorescence trace",Time (s) 335.547,285.984 RLU
same,"RLU, fluorescence trace",Time (s) 341.547,283.853 RLU
same,"RLU, fluorescence trace",Time (s) 347.547,275.523 RLU
same,"RLU, fluorescence trace",Time (s) 353.547,309.056 RLU
same,"RLU, fluorescence trace",Time (s) 359.547,277.364 RLU
same,Activation threshold concentration TAS2R4,lowest concentration with significantly increased fluorescence vs empty vector (p < 0.01),30 µM
